According to ChEMBL document CHEMBL5154904, “Discovery and Structural Basis of the Selectivity of Potent Cyclic Peptide Inhibitors of MAGE-A4” (J Med Chem, 2022):
Calls of active or inactive are those of the source. No cut-off for these calls is given here. Positions of bridges follow the written chain, without caps; N, C: chain ends. Residues, ends and D or L forms follow the SMILES beside them.

Legend:
[1] = target: T1, Melanoma-associated antigen 4 (Homo sapiens, UniProt P43358); assay: Binding affinity to recombinant N-terminal His-tagged MAGEA4-MH domain (unknown origin) expressed in Escherichia coli BL21-(DE3) by isothermal titration calorimetry
T1 sequence (P43358 whole entry): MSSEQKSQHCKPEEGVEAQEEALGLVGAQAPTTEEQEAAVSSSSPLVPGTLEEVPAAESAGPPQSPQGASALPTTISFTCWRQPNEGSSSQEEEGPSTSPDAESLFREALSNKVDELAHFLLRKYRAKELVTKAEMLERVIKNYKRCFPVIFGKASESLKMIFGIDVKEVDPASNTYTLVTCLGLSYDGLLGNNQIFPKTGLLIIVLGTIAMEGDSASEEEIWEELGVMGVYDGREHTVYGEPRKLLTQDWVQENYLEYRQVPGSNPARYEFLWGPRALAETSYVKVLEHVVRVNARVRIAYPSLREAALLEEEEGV

[2] = target: T1, Melanoma-associated antigen 4; assay: Inhibition of Eu-W1024 streptavidin-labeled MAGEA4 (unknown origin) expressed in Escherichia coli BL21-(DE3) incubated for 30 to 60 mins by LANCE TR-FRET assay
[3] = Inhibition of biotinylated Eu-W1024 streptavidin-labeled MAGEA4 (unknown origin) expressed in Escherichia coli BL21-(DE3)/GST-tagged RAD18 (unknown origin) (267 to 402 residues) interaction using Ulight-anti-GST antibody incubated for 30 to 60 mins by LANCE TR-FRET assay; design: species or system Homo sapiens
[4] = target: T1, Melanoma-associated antigen 4; assay: Binding affinity to MAGEA4 (unknown origin) expressed in Escherichia coli BL21-(DE3) by isothermal titration calorimetry
[5] = species on record: Homo sapiens; assay: Binding affinity to recombinant N-terminal His-tagged MAGEA4-MH domain Y5A mutant (unknown origin) expressed in Escherichia coli BL21-(DE3) assessed as inhibition of protein stabilization at 10 uM by TR-FRET assay
[6] = target: T2, Melanoma-associated antigen 4 (Homo sapiens) (UniProt P43358); assay: Binding affinity to recombinant N-terminal His-tagged MAGEA4-MH domain (unknown origin) expressed in Escherichia coli BL21-(DE3) assessed as protection in trypsin-induced MAGEA4 protein degradation incubated for 1 hr by proteolysis based SDS-PAGE analysis
T2 sequence (whole entry): T1 sequence (P43358 whole entry)

Row | Kd [1] [nM] | IC50 [2] [nM] | IC50 [3] [nM] | Kd [4] [nM] | Activity [5] | Activity [6] | Molecule
1 | 6.5 | < 1 | < 10 | 11.8 |  |  | CC(C)C[C@@H]1NC(=O)[C@H](CCCNC(=N)N)NC(=O)[C@H](CS)NC(=O)[C@H](Cc2ccc(O)cc2)NC(=O)CSC[C@@H](C(N)=O)NC(=O)[C@H](Cc2ccc(O)cc2)NC(=O)[C@H]([C@@H](C)O)NC(=O)[C@H](CCCNC(=N)N)NC(=O)[C@H]2CCCN2C(=O)[C@H](CC(C)C)NC(=O)[C@H](Cc2cnc[nH]2)NC(=O)[C@H](Cc2ccc(O)cc2)NC(=O)[C@H](CC(=O)O)NC(=O)[C@H](Cc2ccc(O)cc2)NC1=O
2 | 47.4 | 1.26 | 13.5 | 55.5 |  |  | CC(C)C[C@@H]1NC(=O)[C@H]([C@H](C)O)NC(=O)[C@H](C(C)C)NC(=O)[C@H](Cc2ccc(O)cc2)NC(=O)CSC[C@@H](C(N)=O)NC(=O)[C@H]([C@@H](C)O)NC(=O)[C@H]2CCCN2C(=O)[C@H](Cc2ccccc2)NC(=O)[C@H](CCCNC(=N)N)NC(=O)[C@H](CC(N)=O)NC(=O)[C@H](Cc2ccccc2)NC(=O)[C@H]([C@@H](C)O)NC(=O)[C@H](CCCNC(=N)N)NC1=O
3 |  |  |  |  | Active |  | CC[C@H](C)[C@@H]1NC(=O)[C@H](Cc2ccc(O)cc2)NC(=O)CSC[C@@H](C(N)=O)NC(=O)[C@H](CC(N)=O)NC(=O)[C@H](Cc2cnc[nH]2)NC(=O)[C@H](Cc2ccc(O)cc2)NC(=O)[C@H](CC(=O)O)NC(=O)[C@H](C)NC(=O)[C@H](CC(C)C)NC(=O)[C@H](CCCNC(=N)N)NC1=O ({CH2CO}-YIRLADYHNC-NH2; thioether N-10)
4 |  | < 10000 |  |  |  | Active | Ac-YIRLYDYHNC-NH2
